In ChEMBL document CHEMBL2046397, “Design and synthesis of 5-(substituted benzylidene)thiazolidine-2,4-dione derivatives as novel tyrosinase inhibitors” (Eur J Med Chem, 2012):
Activity calls are given as the source filed them. No cut-off for these calls is given here.

Legend:
B16 [1] = assay: Cytotoxicity against mouse B16 cells at 0.1 to 10 uM after 8 hrs by MTT assay; type: cell-based; settings: b16, 8 h
Tyrosinase = target: T1, Tyrosinase (Agaricus bisporus, UniProt O42713); assay: Inhibition of mushroom tyrosinase activity using L-tyrosine as substrate after 30 mins by spectrophotometric analysis
T1 sequence (O42713 whole entry): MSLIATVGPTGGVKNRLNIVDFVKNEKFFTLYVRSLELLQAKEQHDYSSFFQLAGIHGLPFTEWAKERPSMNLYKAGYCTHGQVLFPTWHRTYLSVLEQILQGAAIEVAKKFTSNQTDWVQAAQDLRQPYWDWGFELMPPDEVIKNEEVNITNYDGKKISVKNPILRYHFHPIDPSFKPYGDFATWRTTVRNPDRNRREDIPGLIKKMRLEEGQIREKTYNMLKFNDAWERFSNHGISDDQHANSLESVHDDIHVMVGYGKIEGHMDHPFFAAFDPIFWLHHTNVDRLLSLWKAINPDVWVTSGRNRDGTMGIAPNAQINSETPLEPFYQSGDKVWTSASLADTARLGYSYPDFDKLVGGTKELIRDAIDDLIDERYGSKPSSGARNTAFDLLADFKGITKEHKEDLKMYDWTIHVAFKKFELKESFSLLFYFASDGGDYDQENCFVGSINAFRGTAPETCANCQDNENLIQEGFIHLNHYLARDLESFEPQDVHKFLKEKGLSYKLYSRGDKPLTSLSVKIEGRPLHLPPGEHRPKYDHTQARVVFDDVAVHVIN

[2] = target: T2, Tyrosinase (Agaricus bisporus) (UniProt O42713); assay: Competitive inhibition of mushroom tyrosinase using L-tyrosine as substrate assessed increase in Km L-tyrosine by Line-Weaver-Burk plot analysis
T2 sequence (whole entry): T1 sequence (O42713 whole entry)

B16 [3] = assay: Antimelanogenic activity in mouse B16 cells assessed as inhibition of alpha-MSH-induced melanin formation after 24 hrs by spectrophotometric assay; type: functional, cell-based
[4] = target: T3, Tyrosinase (Mus musculus) (UniProt P11344); assay: Inhibition of MSHalpha-stimulated tyrosinase activity in mouse B16 cells using L-DOPA as substrate after 24 hrs by […]; type: cell-based
T3 sequence (whole entry): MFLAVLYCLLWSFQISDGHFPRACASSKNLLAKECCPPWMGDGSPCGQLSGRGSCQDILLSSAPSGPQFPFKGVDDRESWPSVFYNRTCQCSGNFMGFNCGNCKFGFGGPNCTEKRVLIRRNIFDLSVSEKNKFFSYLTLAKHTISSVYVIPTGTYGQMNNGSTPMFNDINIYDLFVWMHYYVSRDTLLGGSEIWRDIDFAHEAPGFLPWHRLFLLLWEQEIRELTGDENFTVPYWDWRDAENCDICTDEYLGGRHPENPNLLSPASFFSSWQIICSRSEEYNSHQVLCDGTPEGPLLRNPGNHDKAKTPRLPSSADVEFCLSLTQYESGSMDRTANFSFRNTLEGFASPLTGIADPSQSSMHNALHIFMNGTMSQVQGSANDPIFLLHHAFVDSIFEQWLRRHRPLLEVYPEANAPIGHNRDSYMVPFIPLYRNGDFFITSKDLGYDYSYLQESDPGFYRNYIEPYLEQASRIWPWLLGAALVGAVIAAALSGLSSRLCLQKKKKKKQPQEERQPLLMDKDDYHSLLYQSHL

[5] = target: T2, Tyrosinase (Agaricus bisporus); assay: Competitive inhibition of mushroom tyrosinase using L-tyrosine as substrate at 1.25 uM by Line-Weaver-Burk plot analysis
[6] = target: T2, Tyrosinase (Agaricus bisporus); assay: Competitive inhibition of mushroom tyrosinase using L-tyrosine as substrate at 20 uM by Line-Weaver-Burk plot analysis

| Structure (SMILES) | Activity (B16 [1]) | IC50 (Tyrosinase) [µM] | inhibition [2] | inhibition (B16 [3]) | inhibition [4] | Kic [5] [×10⁻⁷ M] | Kic [6] [µM] |
| --- | --- | --- | --- | --- | --- | --- | --- |
| O=C1NC(=O)/C(=C/c2ccc(O)cc2)S1 | Non-toxic | 13.4 | Active | Dose-dependent effect | Active | 3.74 | 0.84 |
| COc1ccc(/C=C2\SC(=O)NC2=O)cc1O | Non-toxic | 9.87 | Active | Dose-dependent effect | Active | 4.13 | 1.38 |
